Source: patent US11471481B2, “Rapid-deposition thin-film forming compositions as effective wound care treatment” (priority 2016, dated 2022)
Read-outs that look alike come from different tables or passages of the source.

Tests used:
[1] = Solubility of PVP-I in different organic solvents; type: physicochemical
Experimental: PVP-I is a polymer complex soluble in water.
To make PVP-I liquid bandage solutions to form rapid-deposition film on skin surface, low boiling-point volatile solvents were selected to study solubility of PVP-I and the time required for the solvent to evaporate to dryness. […] When ethanol alone was the solvent, the drying time was 3 minutes 27 seconds. A mixed solvent has even shorter drying time. Particularly, when the mixed solvent contains acetone and isopentane (which have low boiling points), drying time had been shortened to less than 2 minutes, as the mixed solvents could form azeotropes, which was easier to evaporate. Isopentane had some irritation to skin, and thus its dosage could not be too high. From the study, dosage greater than 15% of isopentane could not shorten the drying time, but instead increase the skin irritation. n-Pentane is not used because of its pungent smell. Therefore, after a preliminary study, ethanol, ethyl acetate, acetone and isopentane alone or combinations were chosen as the solvent phase in this invention.

human skin fibroblast = conditions: cited from earlier work

Substance: Povidone iodine [PVP-I]
- Solubility of PVP-I in ethanol ([1]; ethanol): readily soluble
- Solubility of PVP-I in ethyl acetate, acetone, isopentane and n-pentane ([1]; ethyl acetate, acetone, isopentane, n-pentane): insoluble
- Fibroblast growth (human skin fibroblast; 0.01% and 0.025% PVP-I solutions): progressively retarded
- Fibroblast growth (human skin fibroblast; 0.1% and 1% PVP-I solutions): totally inhibited
